According to patent publication US10905781B2, “Reporter platform for real time monitoring of drug efficacy” (THE BRIGHAM AND WOMEN'S HOSPITAL, INC., priority 2016, dated 2021):
Ends that are not written are not given here.

Test system: effector caspases (caspase-3 and caspase-7) compared with initiator caspases (caspase-6 and caspase-9)
Experiment: Activation of the NIR FRET reporter element by caspases
Format: biochemical
Settings: caspase-3 and caspase-7 compared with caspase-6 and caspase-9
Protocol: FIG. 15A is a graph showing the time-dependent activation of the reporter element (with the NIR FRET pair) in the presence of caspase-3. Reporter element (50 μM) was incubated in the presence of 50 U caspase-3 enzyme at 37° C., which results in the cleavage of the DEVD sequence and removing the quenching effect of Dylight 766Q on the fluorophore Dylight 755. The increase in fluorescence over time was monitored.

activation of the NIR-based fluorophore by effector versus initiator caspases: selective activation
Substance: reporter element: caspase-3 cleavable sequence GKDEVDAPC-CONH2 to which a NIR FRET-pair (Dylight 755 / Dylight 766Q) is conjugated (GKDEVDAPC-NH2; also: Dylight 755 / Dylight 766Q FRET pair conjugated)
